Measured values from ChEMBL document CHEMBL1122718, “Benzylamines: synthesis and evaluation of antimycobacterial properties” (1984).

Legend:
Type in all cases: functional
Mycobacterium avium = experiment: Minimum inhibitory concentration (MIC) of compound against Mycobacterium avium SN 304
[1] = system: Mycobacterium tuberculosis; experiment: Minimum inhibitory concentration (MIC) against Mycobacterium tuberculosis H 37 Ra
[2] = system: Mycolicibacterium smegmatis; experiment: Minimum inhibitory concentration (MIC) of compound against Mycobacterium smegmatis ATCC 607
[3] = system: Mycobacterium tuberculosis; experiment: Fractional inhibitory concentration (FIC) was determined for the compound in combination of Isoniazid
[4] = system: Mycobacterium tuberculosis; experiment: Fractional inhibitory concentration (FIC) was determined for the compound in combination of Rifampicin
[5] = system: Mycobacterium tuberculosis; experiment: Fractional inhibitory concentration (FIC) was determined for the compound in combination of Streptomycin sulfate
[6] = system: Mycobacterium tuberculosis; experiment: Fractional inhibitory concentration (FIC) was determined for the compound in combination of Tetracycline hydrochloride
[7] = system: Mycobacterium tuberculosis; experiment: Fractional inhibitory concentration (FIC) was determined for the compound in combination of trimethoprim
[8] = system: Mycobacterium tuberculosis; experiment: Compound was evaluated for the synergistic effect in combination with cycloserine for the inhibition of Mycobacterium tuberculosis H 37 Ra, using Lowenstein-Jensen medium (solid)
[9] = system: Mycobacterium tuberculosis; experiment: Compound was evaluated for the synergistic effect in combination with cycloserine for the inhibition of Mycobacterium tuberculosis H 37 Ra, using middlebrook 7H9 medium (liquid)
[10] = system: Mycobacterium tuberculosis; experiment: Compound was evaluated for the synergistic effect in combination with dapsone for the inhibition of Mycobacterium tuberculosis H 37 Ra, using Lowenstein-Jensen medium (solid)
[11] = system: Mycobacterium tuberculosis; experiment: Compound was evaluated for the synergistic effect in combination with dapsone for the inhibition of Mycobacterium tuberculosis H 37 Ra, using middlebrook 7H9 medium (liquid)
[12] = system: Mycobacterium tuberculosis; experiment: Compound was evaluated for the synergistic effect in combination with ethambutol for the inhibition of Mycobacterium tuberculosis H 37 Ra, using Lowenstein-Jensen medium (solid)
[13] = system: Mycobacterium tuberculosis; experiment: Compound was evaluated for the synergistic effect in combination with ethambutol for the inhibition of Mycobacterium tuberculosis H 37 Ra, using middlebrook 7H9 medium (liquid)
[14] = system: Mycobacterium tuberculosis; experiment: Compound was evaluated for the synergistic effect in combination with ethionamide for the inhibition of Mycobacterium tuberculosis H 37 Ra, using Lowenstein-Jensen medium (solid)
[15] = system: Mycobacterium tuberculosis; experiment: Compound was evaluated for the synergistic effect in combination with capreomycin for the inhibition of Mycobacterium tuberculosis H 37 Ra, using Lowenstein-Jensen medium (solid)
[16] = system: Mycobacterium tuberculosis; experiment: Compound was evaluated for the synergistic effect in combination with capreomycin for the inhibition of Mycobacterium tuberculosis H 37 Ra, using middlebrook 7H9 medium (liquid)
[17] = system: Mycobacterium tuberculosis; experiment: Fractional inhibitory concentration (FIC) was determined for the compound in combination of Aminosalicylic acid
[18] = system: Mycobacterium tuberculosis; experiment: Fractional inhibitory concentration (FIC) was determined for the compound in combination of Benzaldehyde thiosemicarbazone
[19] = system: Mycobacterium tuberculosis; experiment: Fractional inhibitory concentration (FIC) was determined for the compound in combination of Capreomycin
[20] = system: Mycobacterium tuberculosis; experiment: Fractional inhibitory concentration (FIC) was determined for the compound in combination of Cycloserine
[21] = system: Mycobacterium tuberculosis; experiment: Fractional inhibitory concentration (FIC) was determined for the compound in combination of Dapsone
[22] = system: Mycobacterium tuberculosis; experiment: Fractional inhibitory concentration (FIC) was determined for the compound in combination of Ethambutol
[23] = system: Mycobacterium tuberculosis; experiment: Fractional inhibitory concentration (FIC) was determined for the compound in combination of Ethionamide
Mycobacterium lufu = experiment: Minimum inhibitory concentration (MIC) of compound against Mycobacterium lufu L 209
Mycobacterium marinum = experiment: Minimum inhibitory concentration (MIC) of compound against Mycobacterium marinum SN 1254
[24] = system: Mycobacterium tuberculosis; experiment: Compound was evaluated for the synergistic effect in combination with ethionamide for the inhibition of Mycobacterium tuberculosis H 37 Ra, using middlebrook 7H9 medium (liquid)
[25] = system: Mycobacterium tuberculosis; experiment: Compound was evaluated for the synergistic effect in combination with isoniazid for the inhibition of Mycobacterium tuberculosis H 37 Ra, using Lowenstein-Jensen medium (solid)
[26] = system: Mycobacterium tuberculosis; experiment: Compound was evaluated for the synergistic effect in combination with isoniazid for the inhibition of Mycobacterium tuberculosis H 37 Ra, using middlebrook 7H9 medium (liquid)
[27] = system: Mycobacterium tuberculosis; experiment: Compound was evaluated for the synergistic effect in combination with rifampicin for the inhibition of Mycobacterium tuberculosis H 37 Ra, using Lowenstein-Jensen medium (solid)
[28] = system: Mycobacterium tuberculosis; experiment: Compound was evaluated for the synergistic effect in combination with rifampicin for the inhibition of Mycobacterium tuberculosis H 37 Ra, using middlebrook 7H9 medium (liquid)
[29] = system: Mycobacterium tuberculosis; experiment: Compound was evaluated for the synergistic effect in combination with streptomycin sulfate for the inhibition of Mycobacterium tuberculosis H 37 Ra, using Lowenstein-Jensen medium (solid)
[30] = system: Mycobacterium tuberculosis; experiment: Compound was evaluated for the synergistic effect in combination with streptomycin sulfate for the inhibition of Mycobacterium tuberculosis H 37 Ra, using middlebrook 7H9 medium (liquid)
[31] = system: Mycobacterium tuberculosis; experiment: Compound was evaluated for the synergistic effect in combination with tetracycline hydrochloride for the inhibition of Mycobacterium tuberculosis H 37 Ra, using Lowenstein-Jensen medium (solid)
[32] = system: Mycobacterium tuberculosis; experiment: Compound was evaluated for the synergistic effect in combination with tetracycline hydrochloride for the inhibition of Mycobacterium tuberculosis H 37 Ra, using middlebrook 7H9 medium (liquid)
[33] = system: Mycobacterium tuberculosis; experiment: Compound was evaluated for the synergistic effect in combination with trimethoprim for the inhibition of Mycobacterium tuberculosis H 37 Ra, using Lowenstein-Jensen medium (solid)
[34] = system: Mycobacterium tuberculosis; experiment: Compound was evaluated for the synergistic effect in combination with trimethoprim for the inhibition of Mycobacterium tuberculosis H 37 Ra, using middlebrook 7H9 medium (liquid)
[35] = system: Mycobacterium tuberculosis; experiment: Compound was evaluated for the synergistic effect in combination with aminosalicylic acid for the inhibition of Mycobacterium tuberculosis H 37 Ra, using Lowenstein-Jensen medium (solid)
[36] = system: Mycobacterium tuberculosis; experiment: Compound was evaluated for the synergistic effect in combination with aminosalicylic acid for the inhibition of Mycobacterium tuberculosis H 37 Ra, using middlebrook 7H9 medium (liquid)
[37] = system: Mycobacterium tuberculosis; experiment: Compound was evaluated for the synergistic effect in combination with benzaldehyde thiosemicarbazone for the inhibition of Mycobacterium tuberculosis H 37 Ra, using Lowenstein-Jensen medium (solid)
[38] = system: Mycobacterium tuberculosis; experiment: Compound was evaluated for the synergistic effect in combination with benzaldehyde thiosemicarbazone for the inhibition of Mycobacterium tuberculosis H 37 Ra, using middlebrook 7H9 medium (liquid)
[39] = system: Mycobacterium tuberculosis; experiment: Minimum inhibitory concentration (MIC) of compound against Mycobacterium tuberculosis H 37 Rv

Work on `CNCc1cc(Cl)cc(Cl)c1.Cl` yielded an MIC (Mycobacterium avium) of 4 µg/mL, an MIC [1] of 10.2 µg/mL and an MIC [2] of 32 µg/mL. It also gave an FIC index [3] of 1, an FIC index [4] of 0.5 and an FIC index [5] of 0.125. The FIC index [6] was 1, the FIC index [7] was 0.5 and the MIC [8] was 25.6 µg/mL. For the same compound, the MIC [9] was 32 µg/mL, the MIC [10] was 5.12 µg/mL and the MIC [11] was 32 µg/mL. The MIC [12] was 1 µg/mL, the MIC [13] was 5 µg/mL and the MIC [14] was 6.4 µg/mL. For the same compound, the MIC [15] was 4.47 µg/mL, the MIC [16] was 0.5 µg/mL and the FIC index [17] was 0.0625. The FIC index [18] was 0.25, the FIC index [19] was 1 and the FIC index [20] was 1. The FIC index [21] was 0.031, the FIC index [22] was 1 and the FIC index [23] was 1. It also gave an MIC (Mycobacterium lufu) of 4 µg/mL, an MIC (Mycobacterium marinum) of 4 µg/mL and an MIC [24] of 1 µg/mL. The MIC [25] was 0.03 µg/mL, the MIC [26] was 0.1 µg/mL and the MIC [27] was 0.512 µg/mL. It also gave an MIC [28] of 0.01 µg/mL, an MIC [29] of 7.68 µg/mL and an MIC [30] of 0.1 µg/mL. For the same compound, the MIC [31] was 7.68 µg/mL, the MIC [32] was 2 µg/mL and the MIC [33] was 179 µg/mL. It also gave an MIC [34] of 256 µg/mL, an MIC [35] of 0.025 µg/mL and an MIC [36] of 0.05 µg/mL. For the same compound, the MIC [37] was 0.179 µg/mL, the MIC [38] was 0.1 µg/mL and the MIC [39] was 3 µg/mL.
